Source: patent US10722519B2, “Aerosol fluoroquinolone formulations for improved pharmacokinetics” (priority 2008, dated 2020)
In brackets after ≈: the same amount, converted by molar mass. Read-outs that look alike come from different tables or passages of the source.

What was measured:
P. aeruginosa ATCC 27853 [1] = assay: MIC, broth microdilution; assay type: cell-based; conditions: Pseudomonas aeruginosa, ATCC27853, P. aeruginosa ATCC27853
Method: (§1) Bacterial strains MIC testing: P. aeruginosa ATCC 27853 and NH57388A were used in these studies. MICs were determined by a broth microdilution assay according to CLSI reference methods (Methods for dilution of antimicrobial susceptibility test for bacteria that grow aerobically. Seventh Edition: Clinical and Laboratory Standards Institute (2006) M&-A7, incorporated by reference in its entirety). Assays were performed in a final volume of 100 μl. The bacterial suspensions were adjusted to yield a cell density of 5×10^5 CFU/ml. Antibiotics were prepared at a concentration equivalent to twofold the highest desired final concentration in culture medium and were then diluted directly into 96-well microtiter plates. Microtiter plates were incubated for 24 h at 35° C. and were read by using a microtiter plate reader (Molecular Devices) at 600 nm as well as by visual observation by using a microtiter plate reading mirror.

P. aeruginosa NH57388A [2] = assay: MIC, broth microdilution; assay type: cell-based; conditions: P. aeruginosa NIH57388A CF
Method: as §1

P. aeruginosa ATCC 27853 [3] = assay: Acute mouse lung infection model; conditions: mice; for survival rate: monitored over 9 days; for maximum dose, limited due to toxicity: aerosol route
Method: Aerosol Administration of antibiotics: Antibiotics were aerosolized using a microspray aerosol device (MicroSprayer Model IA-C, PennCentury, Philadelphia, Pa.) attached to a FMJ-250 High-Pressure Syringe (PennCentury, Philadelphia, Pa.). […] For administration, each mouse was anesthetized (5% isoflurane in oxygen running at 4 L/min) and positioned securely at a 45-50° angle by the upper teeth, the microspray aerosol tip was inserted to the bifurcation and a 50 μl volume was administered.
The bacterial suspensions were adjusted to approximately 1-6×10^5 CFU/ml by correlation of the absorbance at 600 nm with predetermined plate counts. […] On day 4, mice were infected by intratracheal (IT) instillation of 0.05 ml of inoculum using a curved oral gavage tip attached to a 1 ml syringe. […] Antibiotics were aerosolized using a microspray aerosol device. All infections and aerosol treatments were performed under isoflurane anesthesia (5% isoflurane in oxygen running at 4 L/min). An untreated group of mice (n=8) was sacrificed prior to the initiation of treatment to determine baseline bacterial counts. […] The lungs were removed aseptically and homogenized (Pro200 homogenizer, Pro Scientific, Monroe, Conn.) in 1 ml of sterile saline. Serial 10-fold dilutions of the homogenized lung were plated on Mueller-hinton agar (MHA), and colonies counted.
In addition, due to the need for anesthesia for treatment, the maximum number of daily doses was limited to two.

in vivo = conditions: rat, 10 mg/kg
Method: This example relates to aerosol and intravenous administration of fluoroquinolones in saline. A rat pharmacokinetic model was used to compare intravenous and pulmonary administration of fluoroquinolones. […] Doses were administered via the lateral tail vein, or to the lung just above the tracheal bifurcation using a micro-spray aerosol device (Penn Century, Philadelphia, Pa.).
Approximately 0.3 ml blood samples were taken from 2-6 rats at each timepoint via an indwelling jugular vein cannula, and collected in lithium heparin tubes. Bronchial alveolar lavage (BAL) and lung tissue were collected following euthanasia. […] Sample concentrations were determined against a standard curve.

P. aeruginosa NH57388A [4] = assay: Chronic mouse lung infection model; assay type: in vivo; conditions: mice, aerosol tobramycin 60 mg/kg twice a day for three consecutive days
Method: Bacterial cells were harvested by centrifugation (23,000×g, 30 min, at 4° C.) and resuspended in 3-6 ml of MHB. The supernatant was collected and placed in 80° C. water-bath for 30 min. […] The precipitated alginate was collected with a sterile bacterial loop and washed several times in sterile saline. The purified alginate was then resuspended in 10 ml of sterile saline and stirred vigorously to form a homogeneous suspension. […] The bacterial suspension was diluted (1:10) in the alginate suspension to yield about 10^8 CFU/ml. […] On day 4, the mice were infected using a curved bead-tipped oral gavage attached to a 1 ml syringe while under isoflurane anesthesia.

[5] = aerosol dose of […], adults with cystic fibrosis, Cooney et al. 1994; cited from earlier work
[6] = Pseudomonas aeruginosa, NH57388A, read-out: MIC
[7] = male, Sprague-Dawley, in vivo, inhaled or intranasal
[8] = male, Sprague-Dawley, in vivo, iv

Row | Compound | MIC (P. aeruginosa NH57388A [2]; [6]) [µg/mL] | maximum dose, limited due to toxicity (P. aeruginosa ATCC 27853 [3]) [mg/kg] | F, % from Lung vs IV (in vivo; male, Sprague-Dawley, in vivo) [%] | MAT (in vivo; male, Sprague-Dawley, in vivo) [h] | AUC (in vivo; [7]) [ng·h/mL] | AUC(0-inf) (in vivo; [7]) [ng·h/mL] | MRT (in vivo; [7]) [h] | half-life (in vivo; [7]) [h] | AUC (in vivo; [8]) [ng·h/mL] | AUC(0-inf) (in vivo; [8]) [ng·h/mL] | MRT (in vivo; [8]) [h] | half-life (in vivo; [8]) [h] | other results
1 | C[C@H]1[C@H](NC(=O)/C(=N\OC(C)(C)C(=O)O)c2csc(N)n2)C(=O)N1S(=O)(=O)O [Aztreonam, aztreonam] | 4 (≈ 9.19 µM) | 400 | – | – | – | – | – | – | – | – | – | – | MIC (P. aeruginosa ATCC 27853 [1]): 4 µg/mL (≈ 9.19 µM); survival rate (P. aeruginosa ATCC 27853 [3]; aerosol 800 mg/kg/day (400 mg/kg BID)): 20%; mean reductions in bacterial counts (P. aeruginosa ATCC 27853 [3]; aerosol aztreonam 400 mg/kg twice a day for 2 consecutive days): 0.24 log CFU per lung
2 | O=C(O)c1cn(C2CC2)c2cc(N3CCNCC3)c(F)cc2c1=O [Ciprofloxacin, ciprofloxacin] | – | – | – | – | – | – | – | – | – | – | – | – | MAT (in vivo; Aerosol, in saline): 0.59 h
3 | COc1c(N2CCNC(C)C2)c(F)cc2c(=O)c(C(=O)O)cn(C3CC3)c12 (stereo not shown) [Gatifloxacin, gatifloxacin] | – | – | 100 | 0 | 3120 | 5830 | 1.34 | 1.13 | 350 | 5310 | 1.39 | 1.06 | –
4 | CO/N=C1\CN(c2nc3c(cc2F)c(=O)c(C(=O)O)cn3C2CC2)CC1CN (stereo not shown) [Gemifloxacin, gemifloxacin] | – | – | 86 | 0.65 | 140000 | 5860 | 2.06 | 1.68 | 900 | 4540 | 1.41 | 1.04 | –
5 | CCn1cc(C(=O)O)c(=O)c2cc(F)c(N3CCNCC3)cc21 [Norfloxacin, norfloxacin] | – | – | 100 | 0 | 24600 | 4460 | 1.29 | 1.13 | 800 | 4650 | 1.59 | 1.21 | –
6 | NC[C@H]1O[C@H](O[C@H]2[C@H](O)[C@@H](O[C@H]3O[C@H](CO)[C@@H](O)[C@H](N)[C@H]3O)[C@H](N)C[C@@H]2N)[C@H](N)C[C@@H]1O [Tobramycin, tobramycin] | < 1 | 60 | – | – | – | – | – | – | – | – | – | – | MIC (P. aeruginosa NH57388A [2]): 0.5 µg/mL (≈ 1.07 µM); survival rate (P. aeruginosa ATCC 27853 [3]; aerosol 120 mg/kg/day (60 mg/kg BID)): 60%; mean reductions in bacterial counts (P. aeruginosa ATCC 27853 [3]; aerosol tobramycin 60 mg/kg twice a day for 2 consecutive days): 2.70 log CFU per lung; mean log CFU reductions (P. aeruginosa NH57388A [4]): 2.9 log CFU; bioavailability [5]: about 9%
